Results published in article PMC10114720.

Columns and labels:
[1] = PDMS sheets cleaned by Soxhlet with ethyl acetate; batch shaking method with a mixture of all chemicals at several PDMS-mass to water-volume ratios and spiked levels; vials shaken on an orbital shaker at room temperature in the dark, sampled at two equilibration times; PDMS extracts and water quantified by LC-HRMS (Orbitrap); D from the slope of C_PDMS on C_w or their ratio; value is the mean over that pH's experiments (individual experiments in the SI's concentrations table), sd is the table's stdev; conditions: PDMS (polydimethylsiloxane silicone sheet), phosphate buffer at three target pH values (the paper's methods)
[2] = neutral chemical: log K is the mean of log D over all measurements at the three pH values (D shown independent of pH, paired t-test); sd is the table's stddev. PDMS sheets cleaned by Soxhlet with ethyl acetate; batch shaking method with a mixture of all chemicals at several PDMS-mass to water-volume ratios and spiked levels; vials shaken on an orbital shaker at room temperature in the dark, sampled at two equilibration times; PDMS extracts and water quantified by LC-HRMS (Orbitrap); D from the slope of C_PDMS on C_w or their ratio; conditions: PDMS (polydimethylsiloxane silicone sheet); phosphate buffer at three target pH values (the paper's methods)

Row | SMILES | log D PDMS/w (apparent distribution ratio at the stated pH) ([1]; pH 3) | log D PDMS/w (apparent distribution ratio at the stated pH) ([1]; pH 7.4) | log D PDMS/w (apparent distribution ratio at the stated pH) ([1]; pH 11.5) | log K PDMS/w (neutral species) [2]
1 | CC(C)c1ccc2sc3ccccc3c(=O)c2c1 | 4.266 log units; D and K as the pape | 4.252 log units; D and K as the pape | 4.168 log units; D and K as the pape | 4.227 log units; D and K as the pape
2 | CCCN(CCOc1c(Cl)cc(Cl)cc1Cl)C(=O)NC=O | 2.492 log units; D and K as the pape | 2.482 log units; D and K as the pape |  | 2.487 log units; D and K as the pape
3 | CN(C)c1ccc(C(=O)c2ccc(N(C)C)cc2)cc1 | 2.372 log units; D and K as the pape | 2.263 log units; D and K as the pape | 1.409 log units; D and K as the pape | 2.057 log units; D and K as the pape
4 | CCOC(=O)C(C)(C)Oc1ccc(Cl)cc1 | 1.764 log units; D and K as the pape | 1.684 log units; D and K as the pape | 1.69 log units; D and K as the pape | 1.711 log units; D and K as the pape
5 | O=C1NCCN1Cc1ccc(Cl)nc1 |  | 1.277 log units; D and K as the pape | 1.451 log units; D and K as the pape | 1.372 log units; D and K as the pape
6 | COCCOCCOCCOCCOC | 0.372 log units; D and K as the pape | 0.424 log units; D and K as the pape | 0.53 log units; D and K as the pape | 0.442 log units; D and K as the pape
7 | N#Cc1nn(-c2c(Cl)cc(C(F)(F)F)cc2Cl)c(N)c1C(F)(F)F | 1.946 log units; D and K as the pape | 1.927 log units; D and K as the pape | 1.883 log units; D and K as the pape | 1.919 log units; D and K as the pape
8 | CNC(=O)/C(=N/OC)c1ccccc1COc1cc(C)ccc1C | 2.432 log units; D and K as the pape | 2.361 log units; D and K as the pape | 2.397 log units; D and K as the pape | 2.396 log units; D and K as the pape
9 | CC(C)(C)NC(=O)[C@H]1CC[C@H]2[C@@H]3CC[C@H]4NC(=O)C=C[C@]4(C)[C@H]3CC[C@]12C | 2.64 log units; D and K as the pape | 2.691 log units; D and K as the pape | 2.582 log units; D and K as the pape | 2.638 log units; D and K as the pape
10 | O=S(=O)(c1ccc(Cl)cc1)c1ccc(Cl)cc1 | 2.579 log units; D and K as the pape | 2.592 log units; D and K as the pape | 2.517 log units; D and K as the pape | 2.563 log units; D and K as the pape
11 | N#Cc1nn(-c2c(Cl)cc(C(F)(F)F)cc2Cl)c(N)c1SC(F)(F)F | 2.477 log units; D and K as the pape | 2.459 log units; D and K as the pape | 2.375 log units; D and K as the pape | 2.436 log units; D and K as the pape
12 | O=C(/C=C/C=C/c1ccc2c(c1)OCO2)N1CCCCC1 | 3.24 log units; D and K as the pape | 3.109 log units; D and K as the pape | 3.066 log units; D and K as the pape | 3.135 log units; D and K as the pape
